# Source: US11117900B2 (Vertex Pharmaceuticals Incorporated, priority 2012, dated 2021)
# System: HCT116 colorectal cancer cells
# Assay: Cisplatin sensitization assay (96 h MTS cell viability);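 also: compound concentration needed to lower the IC50 of Cisplatin alone by a set fold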
# Type: cell-based
# Conditions: Cisplatin sensitization value
# Procedure, shortened: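 HCT116 cells were dosed simultaneously with compound and cisplatin as a full matrix of 2-fold serial dilutions from 10 μM top final concentration. Incubation was 96 h at 37° C., 5% CO2, followed by 1 h with MTS reagent for the viability read-out. Sensitization values were binned into +++, ++ and + categories.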
row,Structure (SMILES),Cisplatin Sensitization Assay
1,"CS(=O)(=O)CC1CCN(c2ccncc2NC(=O)c2c(N)nn3cc(F)cnc23)CC1 [I-N-215, 2-amino-6-fluoro-N-(4-(4-((methylsulfonyl)methyl)piperidin-1-yl)pyridin-3-yl)pyrazolo[1,5-a]pyrimidine-3-carboxamide]",+++ (Compounds with a Cisplatin sensitization value of <0.02 μM are marked with “+++.”)
2,"N#CCc1cnc2c(C(=O)Nc3cnccc3N3CCOCC3)c(N)nn2c1 [I-N-81, 2-amino-6-(cyanomethyl)-N-(4-morpholinopyridin-3-yl)pyrazolo[1,5-a]pyrimidine-3-carboxamide]",+++ (Compounds with a Cisplatin sensitization value of <0.02 μM are marked with “+++.”)
3,"N#CCc1cnc2c(C(=O)Nc3cnccc3O[C@@H]3CCNC3)c(N)nn2c1 [I-O-87, (R)-2-amino-6-(cyanomethyl)-N-(4-(pyrrolidin-3-yloxy)pyridin-3-yl)pyrazolo[1,5-a]pyrimidine-3-carboxamide]",++ (Compounds with a Cisplatin sensitization value >0.02 μM but <0.2 μM are marked with “++.”)
4,"Nc1nn2cc(F)cnc2c1C(=O)Nc1cncc(F)c1N1CCC(C(=O)N2CCNCC2)CC1 [I-G-12, 2-amino-6-fluoro-N-(5-fluoro-4-(4-(piperazine-1-carbonyl)piperidin-1-yl)pyridin-3-yl)pyrazolo[1,5-a]pyrimidine-3-carboxamide]",+++ (Compounds with a Cisplatin sensitization value of <0.02 μM are marked with “+++.”)
5,"N#CCc1cnc2c(C(=O)Nc3cnccc3Oc3ccccc3)c(N)nn2c1 [I-O-25, 2-amino-6-(cyanomethyl)-N-(4-phenoxypyridin-3-yl)pyrazolo[1,5-a]pyrimidine-3-carboxamide]",+++ (Compounds with a Cisplatin sensitization value of <0.02 μM are marked with “+++.”)
6,"CN1CCN(c2ccncc2NC(=O)c2c(N)nn3cc(C(C)(C)C#N)cnc23)CC1 [I-N-76, 2-amino-6-(2-cyanopropan-2-yl)-N-(4-(4-methylpiperazin-1-yl)pyridin-3-yl)pyrazolo[1,5-a]pyrimidine-3-carboxamide]",+++ (Compounds with a Cisplatin sensitization value of <0.02 μM are marked with “+++.”)
7,"CN(C)CCOCCOc1ccncc1NC(=O)c1c(N)nn2cc(Cl)cnc12 [I-O-47, 2-amino-6-chloro-N-(4-(2-(2-(dimethylamino)ethoxy)ethoxy)pyridin-3-yl)pyrazolo[1,5-a]pyrimidine-3-carboxamide]",+ (Compounds with a Cisplatin sensitization value >0.2 μM but <5 μM are marked with “+.”)
8,"Nc1nn2cc(F)cnc2c1C(=O)Nc1cnccc1-c1ccncc1 [I-C-24, N-([4,4′-bipyridin]-3-yl)-2-amino-6-fluoropyrazolo[1,5-a]pyrimidine-3-carboxamide]",+++ (Compounds with a Cisplatin sensitization value of <0.02 μM are marked with “+++.”)
9,"CN1CCN(c2c(C#N)cncc2NC(=O)c2c(N)nn3cc(F)cnc23)CC1 [I-N-113, 2-amino-N-(5-cyano-4-(4-methylpiperazin-1-yl)pyridin-3-yl)-6-fluoropyrazolo[1,5-a]pyrimidine-3-carboxamide]",+ (Compounds with a Cisplatin sensitization value >0.2 μM but <5 μM are marked with “+.”)
10,"N#CCc1cnc2c(C(=O)Nc3cnccc3-c3ccccc3)c(N)nn2c1 [I-C-6, 2-amino-6-(cyanomethyl)-N-(4-phenylpyridin-3-yl)pyrazolo[1,5-a]pyrimidine-3-carboxamide]",+++ (Compounds with a Cisplatin sensitization value of <0.02 μM are marked with “+++.”)
11,"Nc1nn2cc(Cl)cnc2c1C(=O)Nc1cnccc1OC1CNC1 [I-O-73, 2-amino-N-(4-(azetidin-3-yloxy)pyridin-3-yl)-6-chloropyrazolo[1,5-a]pyrimidine-3-carboxamide]",+ (Compounds with a Cisplatin sensitization value >0.2 μM but <5 μM are marked with “+.”)
12,"CN1CCC(Oc2ccncc2NC(=O)c2c(N)nn3cc(Cl)cnc23)CC1 [I-O-64, 2-amino-6-chloro-N-(4-((1-methylpiperidin-4-yl)oxy)pyridin-3-yl)pyrazolo[1,5-a]pyrimidine-3-carboxamide]",+++ (Compounds with a Cisplatin sensitization value of <0.02 μM are marked with “+++.”)
13,"CN(C)CCCOc1ccncc1NC(=O)c1c(N)nn2cc(Cl)cnc12 [I-O-52, 2-amino-6-chloro-N-(4-(3-(dimethylamino)propoxy)pyridin-3-yl)pyrazolo[1,5-a]pyrimidine-3-carboxamide]",+ (Compounds with a Cisplatin sensitization value >0.2 μM but <5 μM are marked with “+.”)
14,"CNCCc1cnn(-c2ccncc2NC(=O)c2c(N)nn3cc(F)cnc23)c1 [I-N-8, 2-amino-6-fluoro-N-(4-(4-(2-(methylamino)ethyl)-1H-pyrazol-1-yl)pyridin-3-yl)pyrazolo[1,5-a]pyrimidine-3-carboxamide]",+ (Compounds with a Cisplatin sensitization value >0.2 μM but <5 μM are marked with “+.”)
15,"Nc1nn2cc(F)cnc2c1C(=O)Nc1cncc(F)c1N1CCN(C(=O)C2CCOC2)CC1 (stereo not drawn) [I-N-274, 2-amino-6-fluoro-N-(5-fluoro-4-(4-(tetrahydrofuran-3-carbonyl)piperazin-1-yl)pyridin-3-yl)pyrazolo[1,5-a]pyrimidine-3-carboxamide]",+++ (Compounds with a Cisplatin sensitization value of <0.02 μM are marked with “+++.”)
16,"Nc1nn2cc(F)cnc2c1C(=O)Nc1cnccc1-c1cccnc1 [I-C-15, N-([3,4′-bipyridin]-3′-yl)-2-amino-6-fluoropyrazolo[1,5-a]pyrimidine-3-carboxamide]",++ (Compounds with a Cisplatin sensitization value >0.02 μM but <0.2 μM are marked with “++.”)
17,"CC1(C)CN(c2ccncc2NC(=O)c2c(N)nn3cc(F)cnc23)CCS1(=O)=O [I-N-252, 2-amino-N-(4-(2,2-dimethyl-1,1-dioxidothiomorpholino)pyridin-3-yl)-6-fluoropyrazolo[1,5-a]pyrimidine-3-carboxamide]",+++ (Compounds with a Cisplatin sensitization value of <0.02 μM are marked with “+++.”)
18,"Nc1nn2cc(F)cnc2c1C(=O)Nc1cncc(F)c1N1CCC(C(=O)N2CC(O)C2)CC1 [I-G-41, 2-amino-6-fluoro-N-(5-fluoro-4-(4-(3-hydroxyazetidine-1-carbonyl)piperidin-1-yl)pyridin-3-yl)pyrazolo[1,5-a]pyrimidine-3-carboxamide]",+++ (Compounds with a Cisplatin sensitization value of <0.02 μM are marked with “+++.”)
19,"Nc1nn2cc(F)cnc2c1C(=O)Nc1cncc(Cl)c1N1CCC(C(=O)N2CCNCC2)CC1 [I-G-48, 2-amino-N-(5-chloro-4-(4-(piperazine-1-carbonyl)piperidin-1-yl)pyridin-3-yl)-6-fluoropyrazolo[1,5-a]pyrimidine-3-carboxamide]",+++ (Compounds with a Cisplatin sensitization value of <0.02 μM are marked with “+++.”)
20,"Cc1cncnc1-c1ccncc1NC(=O)c1c(N)nn2cc(F)cnc12 [I-C-67, 2-amino-6-fluoro-N-(4-(5-methylpyrimidin-4-yl)pyridin-3-yl)pyrazolo[1,5-a]pyrimidine-3-carboxamide]",++ (Compounds with a Cisplatin sensitization value >0.02 μM but <0.2 μM are marked with “++.”)
21,"Nc1nn2cc(F)cnc2c1C(=O)Nc1cncc(F)c1N1CCN(C(=O)C2CCN(C3COC3)CC2)CC1 [I-N-211, 2-amino-6-fluoro-N-(5-fluoro-4-(4-(1-(oxetan-3-yl)piperidine-4-carbonyl)piperazin-1-yl)pyridin-3-yl)pyrazolo[1,5-a]pyrimidine-3-carboxamide]",++ (Compounds with a Cisplatin sensitization value >0.02 μM but <0.2 μM are marked with “++.”)
22,"Nc1nn2cc(F)cnc2c1C(=O)Nc1cncc(Cl)c1N1CCCC1 [I-N-281, 2-amino-N-(5-chloro-4-(pyrrolidin-1-yl)pyridin-3-yl)-6-fluoropyrazolo[1,5-a]pyrimidine-3-carboxamide]",+++ (Compounds with a Cisplatin sensitization value of <0.02 μM are marked with “+++.”)
23,"CN(C)Cc1ccc(Oc2ccncc2NC(=O)c2c(N)nn3cc(F)cnc23)cn1 [I-O-3, 2-amino-N-(4-((6-((dimethylamino)methyl)pyridin-3-yl)oxy)pyridin-3-yl)-6-fluoropyrazolo[1,5-a]pyrimidine-3-carboxamide]",++ (Compounds with a Cisplatin sensitization value >0.02 μM but <0.2 μM are marked with “++.”)
24,"N#CCc1cnc2c(C(=O)Nc3cnccc3N3CCNCC3)c(N)nn2c1 [I-N-89, 2-amino-6-(cyanomethyl)-N-(4-(piperazin-1-yl)pyridin-3-yl)pyrazolo[1,5-a]pyrimidine-3-carboxamide]",++ (Compounds with a Cisplatin sensitization value >0.02 μM but <0.2 μM are marked with “++.”)
25,"CN(C)C1CCN(C2CCN(c3ccncc3NC(=O)c3c(N)nn4cc(Cl)cnc34)CC2)C1 (stereo not drawn) [I-N-106, 2-amino-6-chloro-N-(4-(4-(3-(dimethylamino)pyrrolidin-1-yl)piperidin-1-yl)pyridin-3-yl)pyrazolo[1,5-a]pyrimidine-3-carboxamide]",+++ (Compounds with a Cisplatin sensitization value of <0.02 μM are marked with “+++.”)
26,"Nc1nn2cc(F)cnc2c1C(=O)Nc1cnccc1N1CCN(C2CC2)CC1 [I-N-33, 2-amino-N-(4-(4-cyclopropylpiperazin-1-yl)pyridin-3-yl)-6-fluoropyrazolo[1,5-a]pyrimidine-3-carboxamide]",+ (Compounds with a Cisplatin sensitization value >0.2 μM but <5 μM are marked with “+.”)
27,"Nc1nn2cc(F)cnc2c1C(=O)Nc1cnccc1O[C@@H]1CN2CCC1CC2 [I-O-10, (S)-2-amino-6-fluoro-N-(4-(quinuclidin-3-yloxy)pyridin-3-yl)pyrazolo[1,5-a]pyrimidine-3-carboxamide]",+++ (Compounds with a Cisplatin sensitization value of <0.02 μM are marked with “+++.”)
